{"source": "patent EP1099690A1", "about": "“MONOCYCLIC $g(b)-LACTAM COMPOUNDS AND CHYMASE INHIBITORS CONTAINING THE SAME” (SHIONOGI & CO., LTD., priority 1998, dated 2000)", "note": "pIC50: −log10 of the molar value.", "data": [{"molecular_target": "T1, human chymase (Homo sapiens, UniProt P23946)", "T1 sequence (P23946 22-247)": "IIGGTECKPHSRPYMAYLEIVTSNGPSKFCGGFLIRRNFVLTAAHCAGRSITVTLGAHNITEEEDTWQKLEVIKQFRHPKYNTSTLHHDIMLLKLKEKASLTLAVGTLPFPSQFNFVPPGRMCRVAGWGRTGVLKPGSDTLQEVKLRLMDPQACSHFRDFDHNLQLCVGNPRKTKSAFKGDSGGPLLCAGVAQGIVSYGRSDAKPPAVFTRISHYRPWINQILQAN", "assay": "Chymase inhibitory activity (Suc-Ala-Ala-Pro-Phe-pNA substrate, absorption 405 nm)", "type": "biochemical", "settings": "purified human chymase, 30 minutes at 37 °C preincubation, substrate 0.5 mM", "method": "Compound (I) was dissolved in dimethylsulfoxide (DMSO) at 10^-2 M. Concentration of DMSO for activity measurement was 1 %.\nCompound (I) dissolved in DMSO and purified human chymase (Takai et al., Clinica Chimica Acta 265, 1997, 13-20) were added to a buffer (0.1M Tris-HCl, 1.8M NaCl pH8.0). After the mixture was treated for 30 minutes at 37 °C, Suc-Ala-Ala-Pro-Phe-pNA (BACHEM Feinchemikalien AG) was added at 0.5 mM as a substrate and the mixture was enzymatically reacted at 37 °C.\nAfter the reaction, the absorption intensity (405 nm) of the solution was measured to calculate the inhibitory rate.", "values": [{"smiles": "CC(=O)O[C@H]1[C@H](Cc2ccccc2)C(=O)N1C(=O)NC(C)c1ccccc1", "note": "(some centres unmarked) [Compound I-36]", "pIC50": 8.38}, {"smiles": "C[C@@H](NC(=O)N1C(=O)[C@@H](Cc2ccccc2)[C@@H]1Oc1ccc(C(=O)N(C)CCN(C)C)cc1)c1ccccc1", "note": "[Compound I-38]", "pIC50": 8.66}, {"smiles": "C[C@@H](NC(=O)N1C(=O)[C@@H](Cc2ccccc2)[C@@H]1Oc1ccc(C(=O)N2CCC[C@@H]2C)cc1)c1ccccc1", "note": "[Compound I-41]", "pIC50": 8.72}, {"smiles": "C[C@@H](NC(=O)N1C(=O)[C@@H](Cc2ccccc2)[C@@H]1Oc1ccc(C(=O)N2CCOCC2)cc1)c1ccccc1", "note": "[Compound I-43]", "pIC50": 8.97}, {"smiles": "C=CCNC(=O)c1ccc(O[C@H]2[C@H](Cc3ccccc3)C(=O)N2C(=O)N[C@H](C)c2ccccc2)cc1", "note": "[Compound I-44]", "pIC50": 8.42}, {"smiles": "C[C@@H](NC(=O)N1C(=O)[C@@H](Cc2ccccc2)[C@@H]1Oc1ccc(C(=O)NCc2ccccc2)cc1)c1ccccc1", "note": "[Compound I-45]", "pIC50": 7.70}, {"smiles": "C[C@@H](NC(=O)N1C(=O)[C@@H](Cc2ccccc2)[C@@H]1Oc1ccc(C(=O)Nc2ccccc2)cc1)c1ccccc1", "note": "[Compound I-46]", "pIC50": 7.51}, {"smiles": "C[C@@H](NC(=O)N1C(=O)[C@@H](Cc2ccccc2)[C@@H]1Oc1ccc(C(=O)OCCN(C)C)cc1)c1ccccc1", "note": "[Compound I-47]", "pIC50": 8.52}, {"smiles": "C[C@@H](NC(=O)N1C(=O)[C@@H](Cc2ccccc2)[C@@H]1Oc1ccc(CC(=O)O)cc1)c1ccccc1", "note": "[Compound I-49]", "pIC50": 8.37}, {"smiles": "C[C@@H](NC(=O)N1C(=O)[C@@H](Cc2ccccc2)[C@@H]1Oc1ccc(CC(=O)N2CCN(C)CC2)cc1)c1ccccc1", "note": "[Compound I-50]", "pIC50": 8.95}, {"smiles": "C[C@@H](NC(=O)N1C(=O)[C@@H](Cc2ccccc2)[C@@H]1Oc1ccc(CC(=O)OCCN(C)C)cc1)c1ccccc1", "note": "[Compound I-51]", "pIC50": 7.52}, {"smiles": "C[C@@H](NC(=O)N1C(=O)[C@@H](Cc2ccccc2)[C@@H]1Oc1ccc(/C=C/C(=O)O)cc1)c1ccccc1", "note": "[Compound I-52]", "pIC50": 8.28}, {"smiles": "C[C@@H](NC(=O)N1C(=O)[C@@H](Cc2ccccc2)[C@@H]1Oc1ccc(/C=C/C(=O)N2CCN(C)CC2)cc1)c1ccccc1", "note": "[Compound I-54]", "pIC50": 8.46}, {"smiles": "C[C@@H](NC(=O)N1C(=O)[C@@H](Cc2ccccc2)[C@@H]1Oc1cccc(C(=O)O)c1)c1ccccc1", "note": "[Compound I-55]", "pIC50": 7.77}, {"smiles": "C[C@@H](NC(=O)N1C(=O)[C@@H](Cc2ccccc2)[C@@H]1Oc1cccc(C(=O)N2CCN(C)CC2)c1)c1ccccc1", "note": "[Compound I-56]", "pIC50": 8.53}, {"smiles": "C[C@@H](NC(=O)N1C(=O)[C@@H](Cc2ccccc2)[C@@H]1Sc1ccc(C(=O)O)cc1)c1ccccc1", "note": "[Compound I-57]", "pIC50": 7.62}, {"smiles": "C[C@@H](NC(=O)N1C(=O)[C@@H](Cc2ccccc2)[C@@H]1Sc1ccc(C(=O)N2CCN(C)CC2)cc1)c1ccccc1", "note": "[Compound I-58]", "pIC50": 8.24}, {"smiles": "C[C@@H](NC(=O)N1C(=O)[C@@H](Cc2ccccc2)[C@H]1Oc1ccc(C(=O)N2CCOCC2)cc1)c1ccccc1", "note": "[Compound I-67]", "pIC50": 9.74}, {"smiles": "C[C@@H](NC(=O)N1C(=O)[C@@H](Cc2ccccc2)[C@H]1Oc1ccc(C(=O)NCc2ccccc2F)cc1)c1ccccc1", "note": "[Compound I-68]", "pIC50": 9.17}, {"smiles": "C[C@@H](NC(=O)N1C(=O)[C@@H](Cc2ccccc2)[C@H]1Oc1ccc(C(=O)OCc2ccccc2)cc1)c1ccccc1", "note": "[Compound I-69]", "pIC50": 7.79}, {"smiles": "CCN(Cc1ccccc1)C(=O)c1ccc(O[C@@H]2[C@H](Cc3ccccc3)C(=O)N2C(=O)N[C@H](C)c2ccccc2)cc1", "note": "[Compound I-70]", "pIC50": 8.89}, {"smiles": "CC(OC(=O)c1ccc(O[C@@H]2[C@H](Cc3ccccc3)C(=O)N2C(=O)N[C@H](C)c2ccccc2)cc1)c1ccccc1", "note": "(some centres unmarked) [Compound I-71]", "pIC50": 7.72}, {"smiles": "C[C@@H](NC(=O)N1C(=O)[C@@H](Cc2ccccc2)[C@H]1Oc1ccc(C(=O)NNc2ccccc2)cc1)c1ccccc1", "note": "[Compound I-73]", "pIC50": 9.04}, {"smiles": "C[C@@H](NC(=O)N1C(=O)[C@@H](Cc2ccccc2)[C@H]1Oc1ccc(C(=O)N[C@@H](Cc2ccccc2)C(=O)OCc2ccccc2)cc1)c1ccccc1", "note": "[Compound I-74]", "pIC50": 8.07}, {"smiles": "C[C@@H](NC(=O)N1C(=O)[C@@H](Cc2ccccc2)[C@H]1Oc1ccc(C(=O)OCc2ccncc2)cc1)c1ccccc1", "note": "[Compound I-75]", "pIC50": 8.92}, {"smiles": "C[C@@H](NC(=O)N1C(=O)[C@@H](Cc2ccccc2)[C@H]1Oc1ccc(C(=O)N2CCN(Cc3ccc4c(c3)OCO4)CC2)cc1)c1ccccc1", "note": "[Compound I-76]", "pIC50": 8.62}, {"smiles": "C[C@@H](NC(=O)N1C(=O)[C@@H](Cc2ccccc2)[C@H]1Oc1ccc(C(=O)N[C@@H](Cc2ccccc2)C(=O)O)cc1)c1ccccc1", "note": "[Compound I-77]", "pIC50": 9.59}, {"smiles": "C[C@H](NC(=O)N1C(=O)[C@@H](Cc2ccccc2)[C@H]1Oc1ccc(C(=O)N2CCN(C)CC2)cc1)c1ccccc1", "note": "[Compound I-81]", "pIC50": 7.89}, {"smiles": "C[C@@H](NC(=O)N1C(=O)[C@@H](Cc2ccccc2)[C@H]1Sc1ccccc1)c1ccccc1", "note": "[Compound I-85]", "pIC50": 8.62}, {"smiles": "C[C@@H](NC(=O)N1C(=O)[C@H](Cc2ccccc2)[C@H]1Oc1ccc(C(=O)N2CCN(C)CC2)cc1)c1ccccc1", "note": "[Compound I-87]", "pIC50": 9.10}, {"smiles": "C[C@H](NC(=O)N1C(=O)[C@H](Cc2ccccc2)[C@H]1Oc1ccc(C(=O)N2CCN(C)CC2)cc1)c1ccccc1", "note": "[Compound I-89]", "pIC50": 7.73}, {"smiles": "CC(NC(=O)N1C(=O)[C@@H](Cc2ccccc2)[C@@H]1Oc1ccc(C(N)=O)cc1)c1ccccc1", "note": "(some centres unmarked) [Compound I-95]", "pIC50": 7.80}, {"smiles": "COc1ccccc1C[C@@H]1C(=O)N(C(=O)N[C@H](C)c2ccccc2)[C@H]1Oc1ccc(C(=O)O)cc1", "note": "[Compound I-102]", "pIC50": 9.00}, {"smiles": "COc1ccccc1C[C@@H]1C(=O)N(C(=O)N[C@H](C)c2ccccc2)[C@H]1Oc1ccc(C(=O)N2CCN(C)CC2)cc1", "note": "[Compound I-104]", "pIC50": 9.72}, {"smiles": "COc1ccccc1C[C@@H]1C(=O)N(C(=O)N[C@H](C)c2ccccc2)[C@H]1Oc1ccc(C(=O)OCc2ccncc2)cc1", "note": "[Compound I-105]", "pIC50": 8.55}, {"smiles": "COc1ccccc1C[C@@H]1C(=O)N(C(=O)N[C@H](C)c2ccccc2)[C@H]1Oc1ccc(C(=O)N2CCN(c3ncccn3)CC2)cc1", "note": "[Compound I-107]", "pIC50": 9.17}, {"smiles": "COc1ccccc1C[C@@H]1C(=O)N(C(=O)N[C@H](C)c2ccccc2)[C@H]1Oc1ccc(C(=O)N2CCN(C3CCCCC3)CC2)cc1", "note": "[Compound I-108]", "pIC50": 9.32}, {"smiles": "COc1ccccc1C[C@@H]1C(=O)N(C(=O)N[C@@H](C)c2ccccc2)[C@H]1Oc1ccc(C(=O)N2CCN(C)CC2)cc1", "note": "[Compound I-111]", "pIC50": 7.96}, {"smiles": "CC[C@@H](NC(=O)N1C(=O)[C@@H](Cc2ccccc2OC)[C@@H]1Oc1ccc(C(=O)O)cc1)c1ccccc1", "note": "[Compound I-113]", "pIC50": 9.30}, {"smiles": "CC[C@H](NC(=O)N1C(=O)[C@@H](Cc2ccccc2OC)[C@@H]1Oc1ccc(C(=O)O)cc1)c1ccccc1", "note": "[Compound I-115]", "pIC50": 7.74}, {"smiles": "CCCC(NC(=O)N1C(=O)[C@@H](Cc2ccccc2OC)[C@@H]1Oc1ccc(C(=O)N2CCC(N3CCCCC3)CC2)cc1)c1ccc2c(c1)OCO2", "note": "(some centres unmarked) [Compound I-121]", "pIC50": 9.54}, {"smiles": "COc1ccccc1C[C@@H]1C(=O)N(C(=O)NC2(c3ccccc3)CC2)[C@H]1Oc1ccc(C(=O)O)cc1", "note": "[Compound I-125]", "pIC50": 7.72}, {"smiles": "COc1ccccc1C[C@@H]1C(=O)N(C(=O)NC(c2ccccc2)c2ccccc2)[C@H]1Oc1ccc(C(=O)O)cc1", "note": "[Compound I-126]", "pIC50": 8.53}, {"smiles": "COc1ccccc1C[C@@H]1C(=O)N(C(=O)N[C@H](C)c2ccccc2)[C@@H]1Oc1ccc(C(=O)N2CCN(C)CC2)cc1", "note": "[Compound I-129]", "pIC50": 8.99}, {"smiles": "COc1ccccc1C[C@@H]1C(=O)N(C(=O)N[C@@H](C)c2ccccc2)[C@@H]1Oc1ccc(C(=O)O)cc1", "note": "[Compound I-130]", "pIC50": 8.93}, {"smiles": "COc1ccccc1C[C@@H]1C(=O)N(C(=O)N[C@@H](C)c2ccccc2)[C@@H]1Oc1ccc(C(=O)N2CCN(C)CC2)cc1", "note": "[Compound I-132]", "pIC50": 9.60}, {"smiles": "COc1ccccc1C[C@@H]1C(=O)N(C(=O)N[C@@H](C)c2ccccc2)[C@@H]1Oc1ccc(C(=O)N2CCN(C)CC2)cc1", "note": "[Compound I-134]", "pIC50": 10.00}, {"smiles": "CCOc1ccccc1C[C@@H]1C(=O)N(C(=O)N[C@H](CC)c2ccccc2)[C@H]1Oc1ccc(C(=O)O)cc1", "note": "[Compound I-135]", "pIC50": 8.68}, {"smiles": "CCOc1ccccc1C[C@@H]1C(=O)N(C(=O)N[C@H](CC)c2ccccc2)[C@H]1Oc1ccc(C(=O)N2CCN(C3CCCCC3)CC2)cc1", "note": "[Compound I-137]", "pIC50": 8.47}, {"smiles": "CCOc1ccccc1C[C@@H]1C(=O)N(C(=O)NC(c2ccccc2)c2ccccc2)[C@H]1Oc1ccc(C(=O)N2CCN(C3CCCCC3)CC2)cc1", "note": "[Compound I-145]", "pIC50": 7.97}, {"smiles": "CCOc1ccccc1C[C@@H]1C(=O)N(C(=O)NC(c2ccccc2)c2ccccc2)[C@H]1Oc1ccc(C(=O)N2CCOCC2)cc1", "note": "[Compound I-148]", "pIC50": 9.26}, {"smiles": "CCOc1ccccc1C[C@@H]1C(=O)N(C(=O)NC(c2ccccc2)c2ccccc2)[C@H]1Oc1ccc(C(=O)OCCN2CCOCC2)cc1", "note": "[Compound I-150]", "pIC50": 8.27}, {"smiles": "CCOc1ccccc1C[C@@H]1C(=O)N(C(=O)NC(c2ccccc2)c2ccccc2)[C@H]1Oc1ccc(C(=O)NS(=O)(=O)c2ccccc2)cc1", "note": "[Compound I-151]", "pIC50": 8.34}, {"smiles": "CCOc1ccccc1C[C@@H]1C(=O)N(C(=O)NC(c2ccccc2)c2ccccc2)[C@H]1Oc1ccc(C(=O)O)c(C(=O)O)c1", "note": "[Compound I-152]", "pIC50": 8.39}, {"smiles": "CCOc1ccccc1C[C@@H]1C(=O)N(C(=O)NC(c2ccccc2)c2ccccc2)[C@H]1Oc1ccc(CC(=O)O)cc1", "note": "[Compound I-154]", "pIC50": 8.60}, {"smiles": "CCOc1ccccc1C[C@@H]1C(=O)N(C(=O)NC(c2ccccc2)c2ccccc2)[C@H]1Oc1ccc(/C=C/C(=O)O)cc1", "note": "[Compound I-155]", "pIC50": 8.42}]}]}
